This assay deals with T1, Aurora-A122-403-C290A/C393A (Homo sapiens, UniProt O14965, C290A/C393A).
T1 construct: Human Aurora-A kinase domain 122-403 wild-type or C290A/ C393A mutant; His tag (pET30TEV vector) (N, cleaved yes); made in house; host or cells: E. coli RIL, co-expressed with lambda phosphatase (Aurora-A); tracer by solid phase synthesis
T1 sequence (O14965 122-403 C290A/C393A): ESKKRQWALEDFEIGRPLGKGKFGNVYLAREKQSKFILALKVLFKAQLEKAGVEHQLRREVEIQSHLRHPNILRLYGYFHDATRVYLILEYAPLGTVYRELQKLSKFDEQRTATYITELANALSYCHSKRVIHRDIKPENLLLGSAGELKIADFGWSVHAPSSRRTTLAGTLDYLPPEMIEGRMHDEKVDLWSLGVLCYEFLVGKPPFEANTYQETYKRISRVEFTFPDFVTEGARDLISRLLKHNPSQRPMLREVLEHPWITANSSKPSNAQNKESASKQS
Description: Competition FA assay against FAM-Ahx-TACC3 522-536 tracer. It is filed as binding.

The mark [1] stands for this setting: as E1, Table S3 (mal): maleimide-constrained species, WT value is an individual replica control assay, mean ± SD, n = 3, SD, read-out: IC50 (mal).

Where two headings read alike, the source gives them in different places. *1 amine or outer side, *2 acyl side, *3 side chain or, on linkers, in order; H or OH if unused. Where a SMILES comes first, the peptide text is derived from it. Bridges are numbered along the chain shown (N, C = ends). [ ]: non-standard residue; d: D form. Biphenyl(4,4'-CH2)2 = c1cc(-c2ccc(C[*:2])cc2)ccc1C[*:1]; Maleimide(3,4-diyl) = O=C1NC(=O)C([*:2])=C1[*:1]; Pro(trans-4-F) = O=C(O)[C@@H]1C[C@@H](F)CN1; Phe(4-Br) = N[C@@H](Cc1ccc(Br)cc1)C(=O)O Some results are limits rather than exact numbers.

In the case of `CC(=O)N[C@@H](CCC(=O)O)C(=O)N[C@@H](CCC(=O)O)C(=O)N[C@@H](CO)C(=O)N[C@@H](Cc1ccccc1)C(=O)N[C@@H](CCCNC(=N)N)C(=O)N[C@@H](CC(=O)O)C(=O)N1CCC[C@H]1C(=O)N[C@@H](C)C(=O)N[C@@H](CCC(=O)O)C(=O)N[C@H](C(=O)N[C@H]1CSSC[C@@H](C(=O)N[C@@H](C)C(N)=O)NC(=O)[C@H]([C@@H](C)O)NC(=O)CNC1=O)C(C)C` [TACC3 522-536 L532C/G535C (ox)] (Ac-EESFRDPAEVCGTCA-NH2; disulfide 11-14), the IC50 (as E1, oxidised (disulfide) species made in situ from 10 mM stock in aqueous DMSO 33% v/v, air, overnight, WT control (+DMSO) given the same DMSO incubation, mean ± SD, n = 3, read-out: IC50 (ox)) was at least 500 µM.

`CC(=O)N[C@@H](CCC(=O)O)C(=O)N[C@@H](CCC(=O)O)C(=O)N[C@@H](CO)C(=O)N[C@@H](Cc1ccccc1)C(=O)N[C@@H](CCCNC(=N)N)C(=O)N[C@@H](CC(=O)O)C(=O)N1CCC[C@H]1C(=O)N[C@@H](C)C(=O)N[C@@H](CCC(=O)O)C(=O)N[C@H]1CSC2=C(SC[C@@H](C(=O)NCC(=O)N[C@@H](C)C(N)=O)NC(=O)CNC(=O)[C@H](CC(C)C)NC1=O)C(=O)NC2=O` [TACC3 522-536 V531C/T534C (mal)] (Ac-EESFRDPAECLGCGA-NH2; linker 10-13 via Maleimide(3,4-diyl)): under setting [1], the IC50 was found to be 412 ± 73 µM.

As to `CC(=O)N[C@@H](CCC(=O)O)C(=O)N[C@@H](CCC(=O)O)C(=O)N[C@@H](CO)C(=O)N[C@@H](Cc1ccccc1)C(=O)N[C@@H](CCCNC(=N)N)C(=O)N[C@@H](CC(=O)O)C(=O)N[C@@H](CS)C(=O)N[C@@H](C)C(=O)N[C@@H](CCC(=O)O)C(=O)N[C@@H](CS)C(=O)N[C@@H](CC(C)C)C(=O)NCC(=O)N[C@H](C(=O)NCC(=O)N[C@@H](C)C(N)=O)[C@@H](C)O` [TACC3 522-536 P528C/V531C (red)] (Ac-EESFRDCAECLGTGA-NH2), under “as E1, free-sulfhydryl (reduced) species, DTT 5 mM in buffer, WT control (+DTT), mean ± SD, n = 3, read-out: IC50 (red)”, the IC50 was at least 500 µM.

For `CC(=O)N[C@@H](CC(C)C)C(=O)N[C@@H](CCC(=O)O)C(=O)N[C@H]1CSCc2ccc(cc2)-c2ccc(cc2)CSC[C@@H](C(=O)N[C@@H](CC(=O)O)C(=O)N2C[C@H](F)C[C@H]2C(=O)N[C@@H](C)C(=O)N[C@@H](CCC(=O)O)C(=O)N[C@H](C(=O)N[C@@H](CC(C)C)C(N)=O)C(C)C)NC(=O)[C@H](Cc2ccc(Br)cc2)NC(=O)[C@H](CO)NC(=O)[C@H](CCC(=O)O)NC(=O)[C@H](CCC(=O)O)NC(=O)[C@H](CCCCN)NC1=O` [TACC3 518-532-L/R-Bph-BrF/fP] (Ac-LECKEES[Phe(4-Br)]CD[Pro(trans-4-F)]AEVL-NH2; linker 3-9 via Biphenyl(4,4'-CH2)2), the half-maximal inhibitory concentration (IC50) (SD, read-out: IC50) came out at 22 ± 1 µM.

As for `CC(=O)N[C@@H](CCC(=O)O)C(=O)N[C@@H](CCC(=O)O)C(=O)N[C@@H](CO)C(=O)N[C@@H](Cc1ccccc1)C(=O)N[C@@H](CS)C(=O)N[C@@H](CC(=O)O)C(=O)N1CCC[C@H]1C(=O)N[C@@H](CS)C(=O)N[C@@H](CCC(=O)O)C(=O)N[C@H](C(=O)N[C@@H](CC(C)C)C(=O)NCC(=O)N[C@H](C(=O)NCC(=O)N[C@@H](C)C(N)=O)[C@@H](C)O)C(C)C` [TACC3 522-536 R526C/A529C (red)] (Ac-EESFCDPCEVLGTGA-NH2), under “as E1, free-sulfhydryl (reduced) species, DTT 5 mM in buffer, WT control (+DTT), mean ± SD, n = 3, SD, read-out: IC50 (red)”, the IC50 was 352 ± 45 µM.

Regarding `CC(=O)N[C@@H](CCC(=O)O)C(=O)N[C@@H](CCC(=O)O)C(=O)N[C@@H](CO)C(=O)N[C@@H](Cc1ccccc1)C(=O)N[C@@H](CCCNC(=N)N)C(=O)N[C@@H](CC(=O)O)C(=O)N1CCC[C@H]1C(=O)N[C@@H](C)C(=O)N[C@H]1CSC2=C(SC[C@@H](C(=O)N[C@H](C(=O)NCC(=O)N[C@@H](C)C(N)=O)[C@@H](C)O)NC(=O)[C@H](CC(C)C)NC(=O)[C@H](C(C)C)NC1=O)C(=O)NC2=O` [TACC3 522-536 E530C/G533C (mal)] (Ac-EESFRDPACVLCTGA-NH2; linker 9-12 via Maleimide(3,4-diyl)), under setting [1], the IC50 was found to be 223 ± 17 µM.

As a reminder, the IC50 is the point on the concentration scale where inhibition reaches its midpoint.

The values are drawn from publication PMC11604048, “Constrained TACC3 peptidomimetics for a non-canonical protein–protein interface elucidate allosteric communication in Aurora-A kinase” (Chemical Science, 2024).
